From ChEMBL document CHEMBL1156282, “4-Substituted-7-azaindoles bearing a ureidobenzofuranone moiety as potent and selective, ATP-competitive inhibitors of the mammalian target of rapamycin (mTOR)” (Bioorg Med Chem Lett, 2010)

Key:
LNCaP = assay: Antiproliferative activity against human LNCAP cells; assay type: functional, cell-based
[1] = target: Phosphatidylinositol 4,5-bisphosphate 3-kinase catalytic subunit alpha isoform (Homo sapiens, UniProt P42336); assay: Inhibition of PI3Kalpha
[2] = Selectivity ratio of IC50 for PI3Kalpha to IC50 for mTOR
[3] = target: Serine/threonine-protein kinase mTOR (Homo sapiens, UniProt P42345); assay: Inhibition of mTOR

Chain of Phosphatidylinositol 4,5-bisphosphate 3-kinase catalytic subunit alpha isoform (P42336 whole entry, canonical isoform): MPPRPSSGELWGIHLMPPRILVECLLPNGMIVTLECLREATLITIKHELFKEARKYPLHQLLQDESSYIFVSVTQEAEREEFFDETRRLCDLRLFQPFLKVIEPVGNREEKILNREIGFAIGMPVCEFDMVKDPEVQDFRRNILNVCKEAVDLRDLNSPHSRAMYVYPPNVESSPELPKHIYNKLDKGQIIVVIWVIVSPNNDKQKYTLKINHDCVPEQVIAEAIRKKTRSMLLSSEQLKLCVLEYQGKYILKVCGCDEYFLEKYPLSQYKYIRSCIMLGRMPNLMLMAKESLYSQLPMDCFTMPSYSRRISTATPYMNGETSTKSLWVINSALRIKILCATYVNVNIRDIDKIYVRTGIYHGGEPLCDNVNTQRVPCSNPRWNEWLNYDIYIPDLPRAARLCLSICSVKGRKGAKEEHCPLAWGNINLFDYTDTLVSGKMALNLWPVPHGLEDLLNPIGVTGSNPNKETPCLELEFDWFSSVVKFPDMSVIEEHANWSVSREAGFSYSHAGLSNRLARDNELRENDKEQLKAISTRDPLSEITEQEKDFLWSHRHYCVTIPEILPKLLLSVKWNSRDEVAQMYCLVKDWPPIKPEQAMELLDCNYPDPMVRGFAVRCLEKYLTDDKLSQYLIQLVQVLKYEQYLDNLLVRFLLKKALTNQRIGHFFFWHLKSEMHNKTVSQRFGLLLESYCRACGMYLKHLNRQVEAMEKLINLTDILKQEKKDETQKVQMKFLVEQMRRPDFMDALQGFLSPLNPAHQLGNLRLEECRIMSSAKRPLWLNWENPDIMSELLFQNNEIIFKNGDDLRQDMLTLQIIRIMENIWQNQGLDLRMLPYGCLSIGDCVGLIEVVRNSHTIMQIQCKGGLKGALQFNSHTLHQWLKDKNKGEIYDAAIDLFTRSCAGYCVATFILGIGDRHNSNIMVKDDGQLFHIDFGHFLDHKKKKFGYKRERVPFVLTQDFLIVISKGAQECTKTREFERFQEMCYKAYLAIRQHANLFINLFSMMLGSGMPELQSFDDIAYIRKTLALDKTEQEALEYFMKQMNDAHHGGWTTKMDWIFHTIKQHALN

Cn1cc(/C=C2\Oc3ccc(NC(=O)Nc4cccnc4)cc3C2=O)c2c(N3CCC(C(=O)N4CC5CCC(C4)O5)CC3)ccnc21
IC50 (LNCaP): 90 nM

Cn1cc(/C=C2\Oc3ccc(NC(=O)Nc4cccnc4)cc3C2=O)c2c(N3CC4CCC3CO4)ccnc21 (configuration not stated)
IC50 [1]: 249 nM
IC50 (LNCaP): 1.8 nM

CN(C)C(=O)C1CCN(c2ccnc3c2c(/C=C2\Oc4ccc(NC(=O)Nc5cccnc5)cc4C2=O)cn3C)CC1
IC50 (LNCaP): 80 nM

CN(Cc1ccccn1)C(=O)C1CCN(c2ccnc3c2c(/C=C2\Oc4ccc(NC(=O)Nc5cccnc5)cc4C2=O)cn3C)CC1
IC50 (LNCaP): 40 nM

Cn1cc(/C=C2\Oc3ccc(NC(=O)Nc4cccnc4)cc3C2=O)c2c(N3CCC(C(=O)N4CCOCC4)CC3)ccnc21
Ratio IC50 [2]: 148
IC50 [1]: 2660 nM
IC50 (LNCaP): 3200 nM

CNC(=O)Nc1ccc2c(c1)C(=O)/C(=C/c1cn(C)c3nccc(-c4ccccc4)c13)O2
IC50 (LNCaP): 60000 nM

CN(C(=O)C1CCN(c2ccnc3c2c(/C=C2\Oc4ccc(NC(=O)Nc5cccnc5)cc4C2=O)cn3C)CC1)c1cccnc1
IC50 (LNCaP): 300 nM

CCNC(=O)Nc1ccc2c(c1)C(=O)/C(=C/c1cn(C)c3nccc(N4CC5CCC(C4)O5)c13)O2
IC50 (LNCaP): 2800 nM

Cn1cc(/C=C2\Oc3cccc(O)c3C2=O)c2c(-c3ccccc3)ccnc21
Ratio IC50 [2]: 25.4
IC50 (LNCaP): 200 nM

CN(Cc1cccnc1)C(=O)C1CCN(c2ccnc3c2c(/C=C2\Oc4ccc(NC(=O)Nc5cccnc5)cc4C2=O)cn3C)CC1
IC50 (LNCaP): 3200 nM

CN(Cc1ccncc1)C(=O)C1CCN(c2ccnc3c2c(/C=C2\Oc4ccc(NC(=O)Nc5cccnc5)cc4C2=O)cn3C)CC1
Ratio IC50 [2]: 132
IC50 (LNCaP): 23 nM

CNC(=O)Nc1cccc2c1C(=O)/C(=C/c1cn(C)c3nccc(-c4ccccc4)c13)O2
IC50 (LNCaP): > 60000 nM

CNC(=O)Nc1ccc2c(c1)C(=O)/C(=C/c1cn(C)c3nccc(N4CC5CCC(C4)O5)c13)O2
IC50 (LNCaP): 140 nM

CN1CCN(C(=O)C2CCN(c3ccnc4c3c(/C=C3\Oc5ccc(NC(=O)Nc6cccnc6)cc5C3=O)cn4C)CC2)CC1
Ratio IC50 [2]: 65.7
IC50 [3]: 70 nM
IC50 (LNCaP): 330 nM

Cn1cc(/C=C2\Oc3ccc(NC(=O)Nc4ccc(N5CCOCC5)nc4)cc3C2=O)c2c(N3CC4CCC(C3)O4)ccnc21
Ratio IC50 [2]: 76.6
IC50 (LNCaP): > 60000 nM

Cn1cc(/C=C2\Oc3ccc(NC(=O)Nc4cccnc4)cc3C2=O)c2c(N3C4CCC3COC4)ccnc21
Ratio IC50 [2]: 3
IC50 [1]: 128 nM
IC50 (LNCaP): 6 nM

Cn1cc(/C=C2\Oc3ccc(NC(=O)Nc4cccnc4)cc3C2=O)c2c(N3CCOCC3)ccnc21
IC50 (LNCaP): 50 nM

CN(C)C1CCN(C(=O)C2CCN(c3ccnc4c3c(/C=C3\Oc5ccc(NC(=O)Nc6cccnc6)cc5C3=O)cn4C)CC2)C1 (configuration not stated)
IC50 [3]: 11 nM
IC50 [1]: > 10000 nM
IC50 (LNCaP): 2300 nM

Cn1cc(/C=C2\Oc3ccc(NC(=O)Nc4cccnc4)cc3C2=O)c2c(N3CCC(C(=O)N4C5CCC4COC5)CC3)ccnc21
IC50 (LNCaP): 200 nM

CN(C)CCNC(=O)Nc1ccc2c(c1)C(=O)/C(=C/c1cn(C)c3nccc(N4CC5CCC(C4)O5)c13)O2
IC50 (LNCaP): 60 nM

Cn1cc(/C=C2\Oc3ccc(NC(=O)Nc4cccnc4)cc3C2=O)c2c(N3CC4CCC(C3)O4)ccnc21
IC50 (LNCaP): 15 nM

Cn1cc(/C=C2\Oc3ccc(NC(=O)Nc4cccnc4)cc3C2=O)c2c(N3CCC(C(=O)N4CCCCC4)CC3)ccnc21
Ratio IC50 [2]: 12.6
IC50 (LNCaP): 18 nM

Cn1cc(/C=C2\Oc3ccc(NC(=O)Nc4cccnc4)cc3C2=O)c2c(N3CCC(C(=O)NCc4cccnc4)CC3)ccnc21
Ratio IC50 [2]: 450
IC50 [3]: 9 nM
IC50 [1]: 4040 nM
IC50 (LNCaP): 60000 nM

CN(Cc1ccccc1)C(=O)C1CCN(c2ccnc3c2c(/C=C2\Oc4ccc(NC(=O)Nc5cccnc5)cc4C2=O)cn3C)CC1
IC50 [3]: 102 nM
IC50 [1]: > 10000 nM
IC50 (LNCaP): 20 nM

CCN(CC)C(=O)C1CCN(c2ccnc3c2c(/C=C2\Oc4ccc(NC(=O)Nc5cccnc5)cc4C2=O)cn3C)CC1
IC50 (LNCaP): 50 nM

Cn1cc(/C=C2\Oc3ccc(NC(=O)Nc4ccccc4)cc3C2=O)c2c(N3CC4CCC(C3)O4)ccnc21
Ratio IC50 [2]: 3.4
IC50 (LNCaP): 280 nM

Cn1cc(/C=C2\Oc3ccc(NC(=O)Nc4cccnc4)cc3C2=O)c2c(N3CCC(C(=O)N4CCCC4)CC3)ccnc21
Ratio IC50 [2]: 111
IC50 (LNCaP): 12 nM
